Each structure is given as a SMILES string. Where only a bound is given, the exact number is not on record here.

The record followed here is patent US20260193264A1, “BENZOYPARAZINE PYRAZINES AND THEIR USES” (FOGHORN THERAPEUTICS INC., priority 2022, published 2026).

Assay [1] deals with T1, HiBiT-BRM fusion protein in stable HeLa cell line (Homo sapiens, UniProt P51531).
T1 construct: expressed in transfected cells
Briefly: HiBiT-BRM cell-based degradation assay (Nano-Glo HiBiT Lytic Detection, 24 h). Details: DC50: scale not given here. As to conditions: HeLa HiBiT-BRM cells; for DC50: read-out: BRM HiBit Degradation IC50; for BRM HiBit Degradation Maximum (%): top dose 30 μM. The method, boiled down:
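HeLa stably expressing HiBiT-BRM; 24 h compound exposure, 10-pt 3-fold dilution from 30 μM final, duplicates. Lytic LgBiT complementation, luminescence. % degradation vs DMSO (HC) and 2 μM known BRM/BRG1 degrader (LC).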
(In general: The HiBiT peptide binds its large partner to form an active luciferase.)

For assay [2], the target named is T2, HiBit-BRG1 fusion protein in stable HeLa cell line expressing HiBit-BRG1 and LgBit (Homo sapiens, UniProt P51532).
T2 construct: expressed in transfected cells
T2 sequence (P51532 whole entry, the tested form may be a part): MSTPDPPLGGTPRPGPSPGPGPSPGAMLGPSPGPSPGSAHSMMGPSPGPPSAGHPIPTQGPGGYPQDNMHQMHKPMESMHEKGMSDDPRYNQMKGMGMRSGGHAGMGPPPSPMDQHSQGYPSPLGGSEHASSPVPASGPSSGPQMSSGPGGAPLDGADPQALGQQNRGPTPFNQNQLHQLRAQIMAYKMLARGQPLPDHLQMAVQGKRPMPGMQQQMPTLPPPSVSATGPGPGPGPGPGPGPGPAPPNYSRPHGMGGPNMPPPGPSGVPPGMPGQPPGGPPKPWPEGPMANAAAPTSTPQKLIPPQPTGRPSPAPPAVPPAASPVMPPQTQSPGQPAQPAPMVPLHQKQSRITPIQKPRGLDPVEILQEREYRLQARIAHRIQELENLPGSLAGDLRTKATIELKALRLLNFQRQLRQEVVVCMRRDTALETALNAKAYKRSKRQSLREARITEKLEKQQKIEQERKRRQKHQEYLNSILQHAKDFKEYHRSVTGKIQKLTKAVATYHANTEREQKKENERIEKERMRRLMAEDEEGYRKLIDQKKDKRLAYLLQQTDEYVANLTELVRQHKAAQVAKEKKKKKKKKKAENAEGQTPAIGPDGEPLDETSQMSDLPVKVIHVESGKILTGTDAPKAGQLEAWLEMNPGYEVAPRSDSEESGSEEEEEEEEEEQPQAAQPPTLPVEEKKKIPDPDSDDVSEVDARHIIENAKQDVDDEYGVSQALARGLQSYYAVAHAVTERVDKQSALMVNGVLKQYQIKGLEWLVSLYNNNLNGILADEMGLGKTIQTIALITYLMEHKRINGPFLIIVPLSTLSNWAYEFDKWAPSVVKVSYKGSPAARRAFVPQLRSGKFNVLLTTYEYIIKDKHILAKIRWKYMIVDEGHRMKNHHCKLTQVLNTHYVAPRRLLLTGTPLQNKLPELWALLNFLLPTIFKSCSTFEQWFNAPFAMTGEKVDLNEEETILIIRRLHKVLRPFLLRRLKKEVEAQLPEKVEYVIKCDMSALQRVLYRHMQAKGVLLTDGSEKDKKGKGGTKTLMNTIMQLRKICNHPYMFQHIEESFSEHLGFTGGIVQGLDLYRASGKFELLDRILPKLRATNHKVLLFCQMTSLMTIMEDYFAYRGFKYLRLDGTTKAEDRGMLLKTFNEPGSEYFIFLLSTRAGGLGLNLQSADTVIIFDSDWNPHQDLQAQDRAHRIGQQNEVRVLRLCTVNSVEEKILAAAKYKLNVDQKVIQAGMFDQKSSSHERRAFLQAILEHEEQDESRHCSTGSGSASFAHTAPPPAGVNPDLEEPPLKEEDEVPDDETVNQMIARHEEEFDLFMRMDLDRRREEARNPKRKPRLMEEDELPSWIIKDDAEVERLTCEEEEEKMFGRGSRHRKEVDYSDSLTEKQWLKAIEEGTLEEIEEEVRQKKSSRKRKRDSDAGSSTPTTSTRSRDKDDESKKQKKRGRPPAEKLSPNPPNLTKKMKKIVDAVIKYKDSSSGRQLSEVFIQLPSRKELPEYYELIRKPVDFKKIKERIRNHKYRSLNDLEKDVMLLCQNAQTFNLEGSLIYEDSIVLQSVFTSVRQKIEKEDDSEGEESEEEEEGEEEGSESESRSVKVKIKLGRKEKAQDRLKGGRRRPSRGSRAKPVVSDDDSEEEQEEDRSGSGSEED
Kind of assay: HiBiT-BRG1 cell-based degradation assay (Nano-Glo HiBiT, 24 h). The conditions noted are these: HeLa HiBit-BRG1/LgBit cells; for DC50: read-out: BRMG1 HiBit Degradation IC50; for Dmax: top dose 30 μM, read-out: BRG1 HiBit Degradation Maximum (%). An outline of the steps: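 Degradation calculated from NanoBiT luminescence relative to DMSO-treated cells (high) and cells given 2 μM known BRM/BRG1 degrader (low). HeLa cells stably expressing HiBiT-BRG1 plus LgBiT were exposed to compound for 24 h before lytic HiBiT detection.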

T1 sequence (P51531 whole entry, the tested form may be a part): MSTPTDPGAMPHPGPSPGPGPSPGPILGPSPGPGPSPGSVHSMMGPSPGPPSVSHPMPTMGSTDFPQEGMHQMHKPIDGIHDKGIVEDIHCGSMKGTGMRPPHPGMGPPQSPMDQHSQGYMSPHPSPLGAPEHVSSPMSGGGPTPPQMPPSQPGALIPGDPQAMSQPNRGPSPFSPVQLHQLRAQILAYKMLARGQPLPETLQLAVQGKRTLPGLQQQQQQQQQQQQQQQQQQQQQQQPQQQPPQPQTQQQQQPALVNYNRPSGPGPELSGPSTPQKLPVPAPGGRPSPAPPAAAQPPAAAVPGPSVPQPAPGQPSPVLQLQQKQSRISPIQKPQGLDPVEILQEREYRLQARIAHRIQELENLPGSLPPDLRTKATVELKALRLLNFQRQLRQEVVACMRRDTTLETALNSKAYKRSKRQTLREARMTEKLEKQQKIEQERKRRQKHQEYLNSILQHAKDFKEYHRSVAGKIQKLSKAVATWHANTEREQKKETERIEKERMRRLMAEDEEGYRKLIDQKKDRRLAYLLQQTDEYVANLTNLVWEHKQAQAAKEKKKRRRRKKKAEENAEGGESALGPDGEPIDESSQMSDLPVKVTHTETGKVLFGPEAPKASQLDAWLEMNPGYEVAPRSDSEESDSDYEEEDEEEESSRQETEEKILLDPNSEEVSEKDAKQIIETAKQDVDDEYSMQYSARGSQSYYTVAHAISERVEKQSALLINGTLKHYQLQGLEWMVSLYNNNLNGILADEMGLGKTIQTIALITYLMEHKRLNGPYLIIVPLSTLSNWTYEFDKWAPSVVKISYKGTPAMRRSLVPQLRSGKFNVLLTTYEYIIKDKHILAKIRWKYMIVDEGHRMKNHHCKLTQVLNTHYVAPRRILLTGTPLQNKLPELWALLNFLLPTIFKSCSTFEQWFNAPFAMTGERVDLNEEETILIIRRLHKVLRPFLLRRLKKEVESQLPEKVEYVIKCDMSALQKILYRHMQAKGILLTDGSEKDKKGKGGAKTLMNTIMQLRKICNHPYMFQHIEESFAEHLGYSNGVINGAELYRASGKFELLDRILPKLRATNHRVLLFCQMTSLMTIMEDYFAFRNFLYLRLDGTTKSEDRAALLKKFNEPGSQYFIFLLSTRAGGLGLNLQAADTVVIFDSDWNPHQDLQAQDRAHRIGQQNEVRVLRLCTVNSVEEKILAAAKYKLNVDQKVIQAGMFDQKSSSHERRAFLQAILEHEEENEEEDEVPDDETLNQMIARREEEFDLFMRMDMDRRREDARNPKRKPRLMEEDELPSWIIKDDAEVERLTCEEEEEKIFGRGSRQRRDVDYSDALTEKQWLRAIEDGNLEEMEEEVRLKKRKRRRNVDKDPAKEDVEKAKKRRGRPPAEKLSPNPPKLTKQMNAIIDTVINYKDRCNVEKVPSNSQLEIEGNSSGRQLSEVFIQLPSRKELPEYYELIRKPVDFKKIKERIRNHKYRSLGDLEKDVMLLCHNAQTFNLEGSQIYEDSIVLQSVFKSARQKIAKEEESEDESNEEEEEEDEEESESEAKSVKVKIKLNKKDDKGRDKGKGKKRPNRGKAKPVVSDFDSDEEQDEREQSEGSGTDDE

As for `Cc1ncsc1-c1ccc([C@H](C)NC(=O)[C@@H]2C[C@@H](O)CN2C(=O)[C@@H](c2cc(N3CC4(C3)CN(c3cc5cc(-c6ccccc6O)nnc5cc3C3CC3)C4)no2)C(C)C)cc1` [Compound 152, (2S,4R)-1-((R)-2-(3-(6-(7-cyclopropyl-3-(2-hydroxyphenyl)cinnolin-6-yl)-2,6-diazaspiro[3.3]heptan-2-yl)isoxazol-5-yl)-3-methylbutanoyl)-4-hydroxy-N-((S)-1-(4-(4-methylthiazol-5-yl)phenyl)ethyl)pyrrolidine-2-carboxamide], in assay [1], the DC50 is less than 0.01 µM and the “BRM HiBit Degradation Maximum (%)” value is listed as “A (“A” indicates maximum degradation ≥75%)”. In addition, in assay [2], the DC50 was less than 0.01 µM and the Dmax is greater than 75%.
As to `Cc1ncsc1-c1ccc([C@H](C)NC(=O)[C@@H]2C[C@@H](O)CN2C(=O)[C@@H](c2cc(C3CC4(C3)CN(c3ccc5nnc(-c6ccccc6O)cc5c3)C4)no2)C(C)C)cc1` (single isomer, unassigned) [Compound 200], in assay [1], the DC50 is less than 0.01 µM and the “BRM HiBit Degradation Maximum (%)” value is “A (“A” indicates maximum degradation ≥75%)”. In assay [2], the DC50 was less than 0.01 µM and the Dmax was greater than 75%.
Turning to `Cc1ncsc1-c1ccc([C@H](C)NC(=O)[C@@H]2C[C@@H](O)CN2C(=O)[C@@H](c2cc(N3CC4(CC(c5ccc6nnc(-c7ccccc7O)cc6c5)C4)C3)no2)C(C)C)cc1` [Compound 48, (2S,4R)-4-hydroxy-1-((R)-2-(3-(6-(3-(2-hydroxyphenyl)cinnolin-6-yl)-2-azaspiro[3.3]heptan-2-yl)isoxazol-5-yl)-3-methylbutanoyl)-N-((S)-1-(4-(4-methylthiazol-5-yl)phenyl)ethyl)pyrrolidine-2-carboxamide], in assay [1], the DC50 was less than 0.01 µM and the “BRM HiBit Degradation Maximum (%)” value is recorded as “A (“A” indicates maximum degradation ≥75%)”. In addition, in assay [2], the DC50 is less than 0.01 µM and the Dmax is greater than 75%.
Turning to `Cc1ncsc1-c1ccc([C@H](C)NC(=O)[C@@H]2C[C@@H](O)CN2C(=O)[C@@H](c2cc(N3CC[C@H](c4ccc5cc(-c6ccccc6O)nnc5c4)C3)no2)C(C)C)cc1` [Compound 60, (2S,4R)-4-hydroxy-1-((R)-2-(3-((R)-3-(3-(2-hydroxyphenyl)cinnolin-7-yl)pyrrolidin-1-yl)isoxazol-5-yl)-3-methylbutanoyl)-N-((S)-1-(4-(4-methylthiazol-5-yl)phenyl)ethyl)pyrrolidine-2-carboxamide], in assay [1], the DC50 was less than 0.01 µM and the “BRM HiBit Degradation Maximum (%)” value was “A (“A” indicates maximum degradation ≥75%)”. In addition, in assay [2], the DC50 was less than 0.01 µM and the Dmax was greater than 75%.
For `COC[C@@H]1CN(c2cc(C(C(=O)N3C[C@H](O)C[C@H]3C(=O)N[C@@H](C)c3ccc(-c4scnc4C)cc3)C(C)C)on2)CCN1c1ccc2nnc(-c3ccccc3O)cc2c1` (stereo partly drawn) [Compound 144, (2S,4R)-4-hydroxy-1-(2-(3-((S)-4-(3-(2-hydroxyphenyl)cinnolin-6-yl)-3-(methoxymethyl)piperazin-1-yl)isoxazol-5-yl)-3-methylbutanoyl)-N-((S)-1-(4-(4-methylthiazol-5-yl)phenyl)ethyl)pyrrolidine-2-carboxamide], in assay [1], the DC50 was less than 0.01 µM and the “BRM HiBit Degradation Maximum (%)” value is given as “A (“A” indicates maximum degradation ≥75%)”. In addition, in assay [2], the DC50 was greater than 0.01 µM and the Dmax was greater than 75%.
In the same order, the values of `Cc1ncsc1-c1ccc([C@H](C)NC(=O)[C@@H]2C[C@@H](O)CN2C(=O)[C@@H](c2cc(N3CC4(CN(c5ccc6cc(-c7ccccc7O)nnc6c5)CCO4)C3)no2)C(C)C)cc1` [Compound 127, (2S,4R)-4-hydroxy-1-((R)-2-(3-(8-(3-(2-hydroxyphenyl)cinnolin-7-yl)-5-oxa-2,8-diazaspiro[3.5]nonan-2-yl)isoxazol-5-yl)-3-methylbutanoyl)-N-((S)-1-(4-(4-methylthiazol-5-yl)phenyl)ethyl)pyrrolidine-2-carboxamide] are less than 0.01 µM, “A (“A” indicates maximum degradation ≥75%)”, less than 0.01 µM and greater than 75%.
Take `Cc1ncsc1-c1ccc([C@H](C)NC(=O)[C@@H]2C[C@@H](O)CN2C(=O)[C@@H](c2cc(N3CC4(CCC(c5ccc6cc(-c7ccccc7O)nnc6c5)CC4)C3)no2)C(C)C)cc1` [Compound 87, (2S,4R)-4-hydroxy-1-((R)-2-(3-(7-(3-(2-hydroxyphenyl)cinnolin-7-yl)-2-azaspiro[3.5]nonan-2-yl)isoxazol-5-yl)-3-methylbutanoyl)-N-((S)-1-(4-(4-methylthiazol-5-yl)phenyl)ethyl)pyrrolidine-2-carboxamide]: in assay [1], the DC50 was less than 0.01 µM and the “BRM HiBit Degradation Maximum (%)” value is on record as “A (“A” indicates maximum degradation ≥75%)”. Also, in assay [2], the DC50 is less than 0.01 µM and the Dmax was greater than 75%.
As to `Cc1ncsc1-c1ccc([C@H](C)NC(=O)[C@@H]2C[C@@H](O)CN2C(=O)[C@@H](c2cc(N3CCN4CCN(c5ccc6nnc(-c7ccccc7O)cc6c5)CC4C3)no2)C(C)C)cc1` (stereo partly drawn) [Compound 151, (2S,4R)-4-hydroxy-1-((2R)-2-(3-(8-(3-(2-hydroxyphenyl)cinnolin-6-yl)octahydro-2H-pyrazino[1,2-a]pyrazin-2-yl)isoxazol-5-yl)-3-methylbutanoyl)-N-((S)-1-(4-(4-methylthiazol-5-yl)phenyl)ethyl)pyrrolidine-2-carboxamide], in assay [1], the DC50 was less than 0.01 µM and the “BRM HiBit Degradation Maximum (%)” value is “A (“A” indicates maximum degradation ≥75%)”. Moreover, the Dmax in assay [2] was less than 50%.
Turning to `CC(C)[C@@H](C(=O)N1C[C@H](O)C[C@H]1C(=O)N[C@@H](C)c1ccccc1)c1cc(-c2ccc3nnc(-c4ccccc4O)cc3c2)no1` [Compound 133, (2S,4R)-4-hydroxy-1-((R)-2-(3-(3-(2-hydroxyphenyl)cinnolin-6-yl)isoxazol-5-yl)-3-methylbutanoyl)-N-((S)-1-phenylethyl)pyrrolidine-2-carboxamide], in assay [1], the DC50 is less than 0.01 µM and the “BRM HiBit Degradation Maximum (%)” value is “A (“A” indicates maximum degradation ≥75%)”. Also, in assay [2], the DC50 was greater than 0.01 µM and the Dmax is greater than 75%.
In the same order, the values of `Cc1ncsc1-c1ccc([C@H](C)NC(=O)[C@@H]2C[C@@H](O)CN2C(=O)[C@@H](c2cc(N3CC4(CCC(c5ccc6nnc(-c7ccccc7O)cc6c5)CC4)C3)no2)C(C)C)cc1` [Compound 62, (2S,4R)-4-hydroxy-1-((R)-2-(3-(7-(3-(2-hydroxyphenyl)cinnolin-6-yl)-2-azaspiro[3.5]nonan-2-yl)isoxazol-5-yl)-3-methylbutanoyl)-N-((S)-1-(4-(4-methylthiazol-5-yl)phenyl)ethyl)pyrrolidine-2-carboxamide] are less than 0.01 µM, “A (“A” indicates maximum degradation ≥75%)”, greater than 0.01 µM and greater than 75%.
